The source of these data is article PMC7307925, “Human Serum Albumin Binding in a Vial: A Novel UV-pH Titration Method To Assist Drug Design” (Journal of Medicinal Chemistry, 2020).

The term pKa denotes the negative logarithm of the acid dissociation constant. The low end stands for a stronger acid or weaker base, the high end for a weaker acid or stronger base.

Data set [1] has as its target T1, human serum albumin (HSA) (Homo sapiens, UniProt P02768). Briefly: HSA binding by biomimetic chromatography on immobilized HSA column (Chiralpak-HSA).
Data set [2] has as its target T1, human serum albumin (HSA). Description: HSA binding by rapid equilibrium dialysis (RED). The data set is classed as in vitro ADME. Set-up: Albumin from human serum (lyophilized powder); purchased Sigma-Aldrich Co., Ltd. (Budapest, Hungary) A9511; host or cells: human serum (natural source). Conditions: for HSA% (RED): 10 µM compound, 4 g/L HSA in PBS pH 7.4, 37 °C, 4.5 hours; for stability under the measurement conditions of RED: RED incubation. For orientation: In equilibrium dialysis free small molecules cross a membrane that holds back macromolecules.
Protocol: Rapid equilibrium dialysis measurements.
The Rapid Equilibrium Dialysis (RED) Device (Thermo Scientific™) was used for the
determination of HSA binding % of reference APIs. RED Device inserts (8K MWCO) were fitted
into the reusable Teflon base plate, then 200 µL of samples were placed into the donor chamber
(indicated by the colored retainer ring). Sample solutions were prepared at 10 µM initial
concentration (0.1% DMSO; 0.9% MeCN) by adding 30 µL of 10 mM DMSO stock solutions to
270 µL MeCN, producing a 1 mM solution, then adding 10 µL of the 1 mM solution to 990 µL of
Then 350 µLs of dialysis buffer (PBS,
pH 7.4) were added to the buffer chambers, the unit was covered with sealing tape and incubated
at 37 °C on an orbital shaker (at 300rpm) for 4.5 hours. After incubation the seal was removed and
50 µL aliquots of post-dialysis samples from the donor and buffer chambers were pipetted to
separate microcentrifuge tubes. A corresponding 50 µL of HSA solution was added to the buffer
samples and an equal volume of buffer (PBS, pH 7.4) was added to the donor samples to create
analytically identical sample matrices. Then 300 µLs of precipitation buffer (cold acetonitrile/
water (90:10 v/v%), containing 0.1 % formic acid and 1 µM verapamil as internal standard) were
added to each sample to precipitate the protein and release compounds. The samples were vortexed
and incubated on ice for 30 mins, then centrifuged for 10 mins at 14000×g. After centrifugation
the supernatants (200 µL) were transferred to 96-well polypropylene plates (Agilent, Waldbronn,
Germany) for LC-MS analysis. Each compound was measured in triplicate. Test compound
concentrations in the donor and buffer chambers were determined from peak areas relative to the internal standard. The percentage of the test compound bound was calculated using the following

A short description of data set [3]: UV-pH titration, pKa in aqueous medium (SiriusT3 fast UV pKa method). The settings on record: ISA-water 0.15 M KCl, 25.0 °C.
The subject of a further data set is plasma proteins. The settings on record: literature data; 45−47 (SI ref 4–7); cited from earlier work.
For data set [4], the system named is human serum albumin (HSA). Conditions: 49 (SI ref 1,2), cited from earlier work.
Data set [5] has as its target T1, human serum albumin (HSA). Briefly: UV-pH titration in the presence of HSA (pKa,HSA and pKa shift). The settings on record: |pKa − pKa,HSA|, 33.3 μM HSA 1:1.
Protocol: Next, we investigated HSA binding of APIs by measuring their pKa values in aqueous medium in the absence of HSA and in the presence of HSA (pKa,HSA). […] The UV-pH titrations were performed using a fully automated SiriusT3 instrument (Pion Inc., Forest Row, U.K.). Spectrophotometric determination of pKa values was performed using the built-in fast UV pKa method, the absorbance changes during the titrations were monitored by the dip-probe absorption spectroscopy (D-PAS) method,[52],[53] and evaluation and calculation of pKa values were performed by the SiriusT3Refine software (version 1.1.3.0., Pion Inc., Forest Row, U.K.).
The mark [6] stands for this setting: ionic strength adjusted water (0.15 M KCl), without HSA, Exp. aqueous pKa1 (pKa of monoprotic APIs), absence of HSA.
Where [7] appears, read: ionic strength adjusted water (0.15 M KCl), without HSA, Exp. aqueous pKa2, absence of HSA.
The mark [8] stands for this setting: Exp. aqueous pKa1 (pKa of monoprotic APIs), absence of HSA.

“And” between values parts separate entries of the source, which are not always exact repeats. Equal entries are not always repeated. Where two headings read alike, the source gives them in different places. Marks after values point to notes of the source that are not given here.

T1 sequence (P02768 25-609): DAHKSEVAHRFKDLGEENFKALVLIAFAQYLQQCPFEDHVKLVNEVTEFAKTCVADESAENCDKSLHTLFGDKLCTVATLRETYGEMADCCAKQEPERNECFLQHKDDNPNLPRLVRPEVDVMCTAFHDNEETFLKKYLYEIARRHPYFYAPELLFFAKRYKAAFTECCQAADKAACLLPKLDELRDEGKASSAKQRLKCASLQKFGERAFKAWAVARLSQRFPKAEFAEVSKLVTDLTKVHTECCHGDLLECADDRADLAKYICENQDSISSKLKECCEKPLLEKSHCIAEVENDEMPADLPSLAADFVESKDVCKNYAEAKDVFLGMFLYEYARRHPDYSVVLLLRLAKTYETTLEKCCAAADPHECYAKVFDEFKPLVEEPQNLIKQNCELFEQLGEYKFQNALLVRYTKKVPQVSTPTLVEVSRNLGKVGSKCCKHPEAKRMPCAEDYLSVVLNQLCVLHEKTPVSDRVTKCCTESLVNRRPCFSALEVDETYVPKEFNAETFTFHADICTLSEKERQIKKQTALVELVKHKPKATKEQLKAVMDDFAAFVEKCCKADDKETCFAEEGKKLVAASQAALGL

For `CCCCC1(C)C(=O)N(c2ccccc2)N(c2ccccc2)C1=O` [C-Methyl phenylbutazone], the “HSA% (HPLC), experimental data” value in data set [1] is listed as 85%; in data set [1] (listed as C-methyl phenylbutazone), 85.0%. Moreover, in data set [2], the “HSA% (RED)” value came out at 64.1 ± 1.8%.
Turning to `CO/N=C(\C(=O)N[C@@H]1C(=O)N2C(C(=O)O)=C(COC(N)=O)CS[C@H]12)c1ccco1` [Cefuroxime], the pKa came out at 2.07 ± 0.05 in data set [3] (setting [6]) and 10.87 ± 0.01 in data set [3] (setting [7]). For the same compound, the PPB% in the data set with plasma proteins is 33 ± 3% and 31.5%.
`CCOC(=O)Cc1ccccc1Nc1c(Cl)cccc1Cl` [Diclofenac ethyl ester]: in data set [2], the “stability under the measurement conditions of RED” value is listed as “instability”.
In the case of `CCOC(=O)c1cc(-c2ccc(F)cc2F)ccc1O` [Diflunisal ethyl ester], the “HSA% (HPLC), experimental data” value in data set [1] is 97.5%. The “stability under the measurement conditions of RED” value in data set [2] was “instability”.
`O=C(O)c1cc(-c2ccc(F)cc2F)ccc1O` [Diflunisal]: the pKa was 2.65 in data set [3] (setting [6]) and 12.74 ± 0.09 in data set [3] (setting [7]).
Compound `C#C[C@]1(O)CC[C@H]2[C@@H]3CCc4cc(O)ccc4[C@H]3CC[C@@]21C` [Ethynyl estradiol] had a pKa in data set [3] (setting [6]) of 10.
For `NC(N)=Nc1nc(CSCCC(N)=NS(N)(=O)=O)cs1` [Famotidine], the “HSA% (HPLC), literature data” value in data set [4] is listed as 14.5%. In addition, the entries for the “ΔpKa1 of UV-pH titration (ΔpKa of monoprotic APIs)” value (“ΔpKa1 of UV-pH titration” for short) in data set [5] and in data set [5] (listed as famotidine) were 0.02 and 0.02 ± 0.03, respectively. The PPB% in the data set on plasma proteins is recorded as 20%. In addition, the “HSA% (HPLC), experimental data” value in data set [1] came out at 25.1%. Also, the “HSA% (RED)” value in data set [2] was 4.4 ± 2.6%.
As to `CN(C)CCCN1c2ccccc2CCc2ccccc21` [Imipramine], the pKa in data set [3] (setting [6]) is 9.6 ± 0.02. Also, in data set [4], the “HSA% (HPLC), literature data” value is listed as 83.1%. For the same compound, the PPB% with plasma proteins is 90.1 ± 1.4% and 92.6%. For the same compound, the “HSA% (HPLC), experimental data” value in data set [1] is recorded as 84.9%.
In the case of `NNC(=O)c1ccncc1` [Isoniazid], the pKa in data set [3] (setting [6]) is 3.65 ± 0.01; in data set [3] (setting [7]) it was 10.77 ± 0.01. For the same compound, the “HSA% (HPLC), literature data” value in data set [4] is listed as 6.8%. The “ΔpKa1 of UV-pH titration” value is 0.05 in data set [5] and 0.05 ± 0.03 in data set [5] (listed as isoniazid). The PPB% result in the data set with plasma proteins is reported as “∼0%”. In addition, the “HSA% (HPLC), experimental data” value in data set [1] was found to be 10.9%.
On to `CN1C(C(=O)Nc2ccccn2)=C(O)c2sc(Cl)cc2S1(=O)=O` [Lornoxicam], for which the pKa in data set [3] (setting [6]) is 0.55 ± 0.06; in data set [3] (setting [7]), 5.09 ± 0.01. The “ΔpKa1 of UV-pH titration” value in data set [5] is 0.87 and 0.87 ± 0.23; in data set [5] (listed as lornoxicam), 0.87 ± 0.23 ^d. Also, the “ΔpKa2 of UV-pH titration” value in data set [5] was 1.00; in data set [5] (listed as lornoxicam), 1.00 ± 0.07. The results for the “HSA% (HPLC), experimental data” value in data set [1] and in data set [1] (listed as lornoxicam) were 100% and 100.0%, respectively. For the same compound, in data set [2], the “HSA% (RED)” value turned out to be 98.0 ± 0.2%.
Consider `Cc1cnc(NC(=O)C2=C(O)c3ccccc3S(=O)(=O)N2C)s1` [Meloxicam], for which the “HSA% (HPLC), experimental data” value in data set [1] stood at 99.9%. Also, in data set [2], the “HSA% (RED)” value amounted to 96.7 ± 0.1%.
Turning to `Cc1ncc([N+](=O)[O-])n1CCO` [Metronidazole], in data set [4], the “HSA% (HPLC), literature data” value was 5.4%. The results for the “ΔpKa1 of UV-pH titration” value in data set [5] and in data set [5] (listed as metronidazole) were 0.00 and 0.00 ± 0.01, respectively. Further, the PPB% in the data set on plasma proteins was 10% and 11 ± 1%.
For `O=C1CN=C(c2ccccc2)c2cc([N+](=O)[O-])ccc2N1` [Nitrazepam], the pKa was 2.94 ± 0.01 in data set [3] (setting [8]) and 10.51 ± 0.03 in data set [3] (Exp. aqueous pKa2, absence of HSA). The “HSA% (HPLC), literature data” value in data set [4] is 82.3%. Moreover, the figures for the “ΔpKa1 of UV-pH titration” value in data set [5] and in data set [5] (listed as nitrazepam) were 0.05 and 0.05 ± 0.03, respectively. The “ΔpKa2 of UV-pH titration” value in data set [5] (listed as nitrazepam) was 0.98 and 0.98 ± 0.06. Also, in data set [1], the “HSA% (HPLC), experimental data” value was found to be 76.7%.
Take `COC1=C(C(=O)Nc2ncc(C)s2)N(C)S(=O)(=O)c2ccccc21` [O-Methyl-meloxicam]: the “HSA% (HPLC), experimental data” value in data set [1] came out at 84.2%. Besides, the results for the “HSA% (RED)” value in data set [2] (listed as O-methyl MEL) and in data set [2] (listed as O-methyl meloxicam) were 65.9% and 65.9 ± 1.8%, respectively.
As to `CCCCc1c(OC)n(-c2ccccc2)n(-c2ccccc2)c1=O` [O-Methyl-phenylbutazone], the “HSA% (HPLC), experimental data” value in data set [1] worked out at 92.9%. Further, the entries for the “HSA% (RED)” value in data set [2] and in data set [2] (listed as O-methyl PHB) were 92.9 ± 1.9% and 92.9%, respectively.
On to `CNC(=O)Oc1ccc2c(c1)[C@]1(C)CCN(C)[C@@H]1N2C` [Physostigmine], for which, in data set [3] (setting [8]), the pKa was 8.15 ± 0.02. In addition, the figures for the “ΔpKa1 of UV-pH titration” value in data set [5] and in data set [5] (listed as physostigmine) were 0.05 and 0.05 ± 0.03, respectively. For the same compound, the results for the “HSA% (HPLC), experimental data” value in data set [1] and in data set [1] (listed as physostigmine) were 20% and 20.0%, respectively. Moreover, the “HSA% (RED)” value in data set [2] is 9.7 ± 6.6%.
On to `CCN(CC)CCOC(=O)c1ccc(N)cc1` [Procaine], for which the pKa turned out to be 9.05 ± 0.02 in data set [3] (human, ionic strength adjusted water (0.15 M KCl), without HSA, Exp. aqueous pKa2, absence of HSA) and 2.19 ± 0.03 in data set [3] (setting [6]). Moreover, the “HSA% (HPLC), literature data” value in data set [4] (listed as procaine) was 36.0%; in data set [4], 36%. The PPB% in the data set on plasma proteins is reported as 6%.
`CC1=C(CC(=O)O)c2cc(F)ccc2/C1=C\c1ccc([S+](C)[O-])cc1` (stereo not shown) [Sulindac] registered a pKa in data set [3] (setting [6]) of 3.94 ± 0.01. Also, in the data set with plasma proteins, the PPB% was 94% and 93.5%.
In the case of `COc1cc(Cc2cnc(N)nc2N)cc(OC)c1OC` [Trimethoprim], the “HSA% (HPLC), literature data” value in data set [4] was 37.6%. In addition, the “ΔpKa1 of UV-pH titration” value in data set [5] is 0.01; in data set [5] (listed as trimethoprim), 0.01 ± 0.02. Besides, in the data set with plasma proteins, the PPB% is 37.5% and 41.5%. Further, the “HSA% (HPLC), experimental data” value in data set [1] came to 37.3%. For the same compound, the “HSA% (RED)” value in data set [2] came out at 3.1 ± 4.6%.
